# Patent publication US5744450A, “GnRH analogs” (The Salk Institute for Biological Studies, priority 1995, dated 1998)
# Test system: LH release
smiles,measurement,value
"CCNC(=O)[C@@H]1CCCN1C(=O)[C@H](CCCNC(=N)N)NC(=O)[C@H](CC(C)C)NC(=O)[C@@H](Cc1ccc(Nc2n[nH]c(N)n2)cc1)NC(=O)[C@H](Cc1ccc(O)cc1)NC(=O)[C@H](CO)NC(=O)[C@H](Cc1c[nH]c2ccccc12)NC(=O)[C@H](Cc1c[nH]cn1)NC(=O)[C@@H]1CCC(=O)N1 [Peptide 130A, pGlu-His-Trp-Ser-Tyr-D-Aph(3-amino-1,2,4-triazole)-Leu-Arg-Pro-NHCH2 CH3]",potency relative to native GnRH,about 79 times that of native GnRH
